What was measured:
[1] = system: panel of 11 kinases (N- and C-terminal NanoLuc fusions); assay: NanoLuc fusion protein array screen, cell-free TNT expression, BRET response ratio (Example 17); type: binding; settings: cell-free TNT reactions diluted 1:100, tracer with or without excess free drug, 2 h room temperature, FIG. 19
Method: Each TNT® reaction was diluted 1:100 in PBS and plated in replicates into wells of 96-well plates. […] For each TNT® reaction, 4 replicates with 2 uM BIRB TOM/4 replicates with 2 uM BIRB-TOM+4 uM BIRB796 (total of 2×96-well plates) and 4 replicas with 1 uM Dasatinib-TOM/4 replicates with 1 uM Dasatinib-TOM+5 uM Dasatinib (total of 2×96-well plates) were performed. The reactions were incubated with constant mixing for 2 h at room temperature. […] To determine response ratios, the BRET values with tracer alone were divided by the BRET values with tracer+unmodified.

[2] = target: 11S-BRD4/114-Histone H3.3 complex (Homo sapiens, UniProt O60885); assay: Competitive displacement of iBET-NCT tracer from 11S-BRD4/Histone H3.3-114 complex, BRET (Example 22); type: binding; settings: HEK293 cells, 2 uM iBET-NCT/PBI-4966 tracer, FIG. 28
[3] = system: NanoLuc fusions to various members of the MAPK pathway; assay: Tracer selectivity across p38/MAPK pathway NanoLuc fusions, BRET response ratio (Example 12); type: binding; settings: HEK293 cells, 2 uM tracer with or without 4 uM BIRB796, FIG. 13
Method: (§1) Cells were incubated at 37° C. for two hours. […] To determine response ratios, the BRET values with tracer alone were divided by the BRET values with tracer+unmodified BIRB796.

PKCalpha-NanoLuc [4] = target: T1, PKCalpha-NanoLuc (Homo sapiens, UniProt P17252); assay: Tracer affinity BRET, PKCalpha-NanoLuc (Example 13); type: binding; settings: HEK293 cells, serially-diluted tracer with or without 4 uM BIRB796, FIGS. 14 and 15
T1 construct: expressed in transfected cells; host or cells: HEK293
Method: (§2) Cells were incubated at 37° C. for two hours.

NanoLuc-HDAC6 [5] = target: T2, NanoLuc-HDAC6 (Homo sapiens, UniProt Q9UBN7); assay: Tracer affinity BRET, NanoLuc-HDAC6 (Example 13); type: binding; settings: HEK293 cells, serially-diluted tracer with or without 4 uM BIRB796, FIGS. 14 and 15
T2 construct: expressed in transfected cells; host or cells: HEK293
T2 sequence (Q9UBN7 with tags, fused parts or gaps): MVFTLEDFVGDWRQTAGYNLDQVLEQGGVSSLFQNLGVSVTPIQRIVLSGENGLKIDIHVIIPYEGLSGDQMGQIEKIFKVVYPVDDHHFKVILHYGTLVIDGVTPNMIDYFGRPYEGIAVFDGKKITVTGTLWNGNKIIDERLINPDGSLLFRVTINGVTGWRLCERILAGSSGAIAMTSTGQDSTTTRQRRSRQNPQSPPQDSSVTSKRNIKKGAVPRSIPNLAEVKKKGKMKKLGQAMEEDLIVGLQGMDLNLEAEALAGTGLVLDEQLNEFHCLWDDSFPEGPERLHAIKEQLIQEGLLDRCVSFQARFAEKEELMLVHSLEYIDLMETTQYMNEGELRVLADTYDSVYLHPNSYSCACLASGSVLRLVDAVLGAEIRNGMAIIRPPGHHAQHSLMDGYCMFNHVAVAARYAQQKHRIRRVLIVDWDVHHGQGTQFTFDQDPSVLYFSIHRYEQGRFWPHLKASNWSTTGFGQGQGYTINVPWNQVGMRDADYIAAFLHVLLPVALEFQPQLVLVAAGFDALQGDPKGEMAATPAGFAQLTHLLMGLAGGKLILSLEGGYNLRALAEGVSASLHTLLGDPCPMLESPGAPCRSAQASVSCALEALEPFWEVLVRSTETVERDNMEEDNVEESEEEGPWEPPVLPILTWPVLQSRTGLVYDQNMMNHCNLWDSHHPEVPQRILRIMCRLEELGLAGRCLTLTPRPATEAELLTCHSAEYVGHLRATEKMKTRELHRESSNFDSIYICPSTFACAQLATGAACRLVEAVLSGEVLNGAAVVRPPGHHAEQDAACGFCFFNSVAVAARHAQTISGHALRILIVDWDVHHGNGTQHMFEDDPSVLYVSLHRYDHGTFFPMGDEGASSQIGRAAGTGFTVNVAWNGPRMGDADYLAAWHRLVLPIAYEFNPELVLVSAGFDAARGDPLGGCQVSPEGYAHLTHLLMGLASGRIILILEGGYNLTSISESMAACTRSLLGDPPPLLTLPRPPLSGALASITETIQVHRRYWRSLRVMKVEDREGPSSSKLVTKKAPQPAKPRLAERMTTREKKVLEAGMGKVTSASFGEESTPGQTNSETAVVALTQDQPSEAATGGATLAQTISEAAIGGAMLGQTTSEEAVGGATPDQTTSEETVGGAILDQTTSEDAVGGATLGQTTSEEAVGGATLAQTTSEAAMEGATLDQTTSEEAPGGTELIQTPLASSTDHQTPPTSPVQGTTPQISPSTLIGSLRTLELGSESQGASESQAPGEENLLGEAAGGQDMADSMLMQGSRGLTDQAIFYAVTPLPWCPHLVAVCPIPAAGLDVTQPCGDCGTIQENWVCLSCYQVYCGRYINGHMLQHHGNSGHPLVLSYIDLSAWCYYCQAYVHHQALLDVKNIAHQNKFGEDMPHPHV
Method: as §2

NanoLuc-p38alpha = target: T3, NanoLuc-p38alpha (Homo sapiens, UniProt Q16539); assay: BRET tracer binding to NanoLuc-p38alpha in HEK293 cells (Example 10); settings: serially-diluted tracer, 37° C. two hours, FIG. 11
T3 construct: expressed in transfected cells; host or cells: HEK293
T3 sequence (Q16539 whole entry): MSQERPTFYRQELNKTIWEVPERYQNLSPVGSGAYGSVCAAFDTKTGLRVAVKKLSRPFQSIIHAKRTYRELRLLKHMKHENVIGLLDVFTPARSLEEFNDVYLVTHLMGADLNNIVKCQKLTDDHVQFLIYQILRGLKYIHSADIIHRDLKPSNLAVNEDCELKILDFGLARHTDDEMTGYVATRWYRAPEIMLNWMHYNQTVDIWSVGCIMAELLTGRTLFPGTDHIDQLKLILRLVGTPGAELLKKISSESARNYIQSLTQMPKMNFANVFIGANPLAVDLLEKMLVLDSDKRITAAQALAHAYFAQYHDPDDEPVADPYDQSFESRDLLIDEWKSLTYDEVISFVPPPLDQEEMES
Method: as §2

PKCalpha-NanoLuc [6] = target: T1, PKCalpha-NanoLuc; assay: Tracer BRET with PKCalpha-NanoLuc in MAPK panel (Example 12); type: binding; settings: HEK293 cells, 2 uM tracer with or without 4 uM BIRB796, FIG. 13
Method: as §1

NanoLuc-HDAC6 [7] = target: T2, NanoLuc-HDAC6; assay: Competitive displacement of SAHA-TOM tracer from NanoLuc-HDAC6, BRET (Example 15); type: binding; settings: HEK293 cells, serially-diluted inhibitor with 1 uM SAHA-TOM (PBI-4968), two hours, FIG. 17
HDAC10 = target: T4, HDAC10 (Homo sapiens, UniProt Q969S8); assay: SAHA tracer BRET with HDAC10 NANOLUC fusion in HeLa cells (Example 23); type: binding; settings: FIG. 30
T4 construct: expressed in transfected cells; host or cells: HeLa
T4 sequence (Q969S8 1-669): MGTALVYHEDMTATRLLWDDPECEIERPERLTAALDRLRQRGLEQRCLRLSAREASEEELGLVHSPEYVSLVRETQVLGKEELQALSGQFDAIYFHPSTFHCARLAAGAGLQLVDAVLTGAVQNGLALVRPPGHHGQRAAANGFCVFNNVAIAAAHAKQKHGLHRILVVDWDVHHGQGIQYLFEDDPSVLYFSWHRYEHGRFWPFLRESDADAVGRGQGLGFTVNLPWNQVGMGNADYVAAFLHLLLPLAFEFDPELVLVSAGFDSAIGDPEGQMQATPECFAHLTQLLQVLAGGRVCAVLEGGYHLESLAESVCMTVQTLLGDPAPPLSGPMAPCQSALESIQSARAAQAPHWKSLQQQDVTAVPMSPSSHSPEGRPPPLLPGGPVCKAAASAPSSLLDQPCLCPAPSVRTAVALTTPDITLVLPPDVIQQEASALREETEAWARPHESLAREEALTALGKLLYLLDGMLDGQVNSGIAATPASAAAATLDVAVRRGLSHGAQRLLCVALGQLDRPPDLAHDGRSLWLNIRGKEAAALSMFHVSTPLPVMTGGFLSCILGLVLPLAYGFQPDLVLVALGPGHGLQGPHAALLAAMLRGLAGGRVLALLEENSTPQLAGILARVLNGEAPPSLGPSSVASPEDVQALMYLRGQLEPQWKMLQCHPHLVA
Method: (§3) HeLa cells were transfected with plasmid DNA encoding NANOLUC fusions with the entire family of non-sirtuin histone deacetylases (HDACs 1-11). […] Cells were incubated at 37° C. for two hours. […] BRET was then measured on a BMG Clariostar luminometer equipped with 450 nm bandpass and 610 nm longpass filters. […] To determine specific, background corrected BRET values, the nonspecific BRET values at each concentration of tracer were subtracted from BRET values with tracer alone.

HDAC8 = target: T5, HDAC8 (Homo sapiens, UniProt Q9BY41); assay: SAHA tracer BRET with HDAC8 NANOLUC fusion in HeLa cells (Example 23); type: binding; settings: FIG. 29
T5 construct: expressed in transfected cells; host or cells: HeLa
T5 sequence (Q9BY41 1-377): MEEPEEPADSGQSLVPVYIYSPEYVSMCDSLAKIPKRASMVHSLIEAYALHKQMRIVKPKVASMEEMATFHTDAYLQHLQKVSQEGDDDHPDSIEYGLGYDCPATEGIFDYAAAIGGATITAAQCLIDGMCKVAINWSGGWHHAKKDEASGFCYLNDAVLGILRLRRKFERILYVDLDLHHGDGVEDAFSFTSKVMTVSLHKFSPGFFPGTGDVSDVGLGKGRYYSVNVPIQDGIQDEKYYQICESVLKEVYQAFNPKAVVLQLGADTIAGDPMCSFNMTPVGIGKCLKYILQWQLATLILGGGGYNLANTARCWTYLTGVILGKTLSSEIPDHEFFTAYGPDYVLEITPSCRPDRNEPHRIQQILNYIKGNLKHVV
Method: as §3

HDAC1 = target: T6, HDAC1 (Homo sapiens, UniProt Q13547); assay: SAHA tracer BRET with HDAC1 NANOLUC fusion in HeLa cells (Example 23); type: binding; settings: FIG. 29
T6 construct: expressed in transfected cells; host or cells: HeLa
T6 sequence (Q13547 whole entry, species assumed, the tested form may be a part): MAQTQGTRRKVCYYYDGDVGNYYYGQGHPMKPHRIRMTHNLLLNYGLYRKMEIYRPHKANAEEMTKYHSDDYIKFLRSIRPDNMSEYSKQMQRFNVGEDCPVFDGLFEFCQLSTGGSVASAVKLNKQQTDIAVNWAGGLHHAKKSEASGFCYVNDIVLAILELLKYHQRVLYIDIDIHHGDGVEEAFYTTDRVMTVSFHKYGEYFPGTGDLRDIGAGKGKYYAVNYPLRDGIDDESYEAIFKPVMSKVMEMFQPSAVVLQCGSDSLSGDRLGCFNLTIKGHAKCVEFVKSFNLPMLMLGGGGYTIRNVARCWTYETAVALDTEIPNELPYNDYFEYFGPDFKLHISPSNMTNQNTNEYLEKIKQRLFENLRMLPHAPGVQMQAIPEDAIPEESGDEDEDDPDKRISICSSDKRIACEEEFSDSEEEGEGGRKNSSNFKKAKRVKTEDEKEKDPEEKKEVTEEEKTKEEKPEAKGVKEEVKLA
Method: as §3

HDAC3 = target: T7, HDAC3 (Homo sapiens, UniProt O15379); assay: SAHA tracer BRET with HDAC3 NANOLUC fusion in HeLa cells (Example 23); type: binding; settings: FIG. 29
T7 construct: expressed in transfected cells; host or cells: HeLa
T7 sequence (O15379 whole entry, the tested form may be a part): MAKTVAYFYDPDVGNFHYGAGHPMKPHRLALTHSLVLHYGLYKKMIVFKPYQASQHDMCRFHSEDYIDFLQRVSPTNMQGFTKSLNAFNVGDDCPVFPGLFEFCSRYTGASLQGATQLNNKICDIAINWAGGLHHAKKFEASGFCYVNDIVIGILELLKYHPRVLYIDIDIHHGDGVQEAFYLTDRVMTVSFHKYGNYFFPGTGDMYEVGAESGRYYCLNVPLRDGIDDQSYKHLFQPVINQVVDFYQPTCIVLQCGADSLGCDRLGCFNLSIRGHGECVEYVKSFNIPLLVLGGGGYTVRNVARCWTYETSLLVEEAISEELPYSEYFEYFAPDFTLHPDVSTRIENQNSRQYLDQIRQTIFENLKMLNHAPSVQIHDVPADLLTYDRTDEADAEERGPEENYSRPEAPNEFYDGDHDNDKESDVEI
Method: as §3

HDAC2 = target: T8, HDAC2 (Homo sapiens, UniProt Q92769); assay: SAHA tracer BRET with HDAC2 NANOLUC fusion in HeLa cells (Example 23); type: binding; settings: FIG. 29
T8 construct: expressed in transfected cells; host or cells: HeLa
T8 sequence (Q92769 whole entry, the tested form may be a part): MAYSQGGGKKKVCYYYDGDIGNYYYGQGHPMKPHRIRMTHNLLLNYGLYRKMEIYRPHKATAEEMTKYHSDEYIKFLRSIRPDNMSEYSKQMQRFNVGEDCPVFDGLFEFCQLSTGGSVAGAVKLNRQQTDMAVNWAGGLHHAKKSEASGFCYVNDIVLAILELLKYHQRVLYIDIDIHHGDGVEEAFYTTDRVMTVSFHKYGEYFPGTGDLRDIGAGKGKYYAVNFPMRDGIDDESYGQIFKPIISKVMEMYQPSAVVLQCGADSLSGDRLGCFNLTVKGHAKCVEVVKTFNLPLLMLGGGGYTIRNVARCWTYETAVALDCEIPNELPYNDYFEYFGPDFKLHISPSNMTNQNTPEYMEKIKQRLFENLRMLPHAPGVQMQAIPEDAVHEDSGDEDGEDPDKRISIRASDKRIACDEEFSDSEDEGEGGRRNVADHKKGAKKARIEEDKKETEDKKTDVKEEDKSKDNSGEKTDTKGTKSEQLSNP
Method: as §3

HDAC6 = target: T9, HDAC6 (Homo sapiens, UniProt Q9UBN7); assay: SAHA tracer BRET with HDAC6 NANOLUC fusion in HeLa cells (Example 23); type: binding; settings: FIG. 30
T9 construct: expressed in transfected cells; host or cells: HeLa
T9 sequence (Q9UBN7 with tags, fused parts or gaps): as the sequence (Q9UBN7 with tags, fused parts or gaps) above
Method: as §3

Class IIa HDACs = assay: SAHA tracer BRET with Class IIa HDAC NANOLUC fusions in HeLa cells (Example 23); type: binding; settings: FIG. 31
Method: as §3

NanoLuc-HDAC6 [8] = target: T2, NanoLuc-HDAC6; assay: Intracellular BRET tracer binding to NanoLuc-HDAC6 (Example 1); settings: HEK293 cells, compared to SAHA-TMR (PBI-4967), FIG. 2
Method: HEK293 cells were transfected using FuGene HD (Promega Corp.) with plasmid DNA encoding a NanoLuc-HDAC6 fusion protein. NanoLuc-HDAC6 DNA was diluted 1:1000 with a promoterless carrier DNA (pGEM3Z) to yield a final concentration of 50 ng/well total DNA in 96-well plate format (at a seeding density of 20,000 cells/well). Twenty-four hours post-transfection, cells were then incubated with serially-diluted tracer in the presence or absence of a molar excess of unlabeled SAHA (as a specificity control). Following equilibration with the drug tracers, furimazine (a coelenterazine derivative substrate for NanoLuc; Promega Corp.) was added at a concentration of 20 uM, and BRET was quantified on a Varioskan luminometer. The specific BRET signal was calculated by subtracting the non-specific signal (in the presence of unlabeled SAHA) from the signal generated from the SAHA tracer alone.

With `Cc1nc(Nc2ncc(C(=O)Nc3c(C)cccc3Cl)s2)cc(N2CCN(CCOC(=O)NCCCCCNC(=O)c3ccc(C(=O)O)c(C4=c5cc6c7c(c5Oc5c4cc4c8c5CCCN8CCCC4)CCC[N+]=7CCCC6)c3)CC2)n1` [PBI-5170] the “selectivity of tracer (hits in NanoLuc fusion array)” value [1] was “ABL1, Src, LCK, MEK5, MAPK11 and MAPK14”.

`COc1cc2c(cc1-c1c(C)noc1C)ncc1[nH]c(=O)n([C@H](C)c3ccccn3)c12` [IBET 151] was tested, and the “effect on BRET signal (competitive binding)” value [2] was “diminished in a dose-dependent manner”.

With `CC(C)(C)c1cc(NC(=O)Nc2ccccc2)n(-c2cccc(CNC(=O)CN)c2)n1` [PBI-4838] the “selectivity of tracer (targets giving specific BRET)” value [3] was “Jnk2, p38beta and p38alpha”, the “selectivity of tracer (hits in NanoLuc fusion array)” value [1] was “JNk2, JNk3, MAPK14, MAPK11 and MAPK13” and the “specific BRET signal” value (PKCalpha-NanoLuc [4]) was “relatively little specific BRET signal”. The “specific BRET signal” value (NanoLuc-HDAC6 [5]) was “relatively little specific BRET signal”, the EC50 (NanoLuc-p38alpha) was 38 nM and the “specific BRET signal” value (PKCalpha-NanoLuc [6]) was “relatively little specific BRET signal”.

With `O=C(CCCCCCC(=O)Nc1ccccc1)NO` [SAHA, suberoylanilide hydroxamic acid] the “binding efficiency to HDAC6” value (NanoLuc-HDAC6 [7]) was “high binding efficiency”.

With `O=C(CCCCCCC(=O)Nc1ccc(CNC(=O)c2ccc(C(=O)O)c(C3=c4cc5c6c(c4Oc4c3cc3c7c4CCCN7CCCC3)CCC[N+]=6CCCC5)c2)cc1)NO` [PBI-4968] the BRET with tracer (HDAC10) was “specific BRET”, the BRET with tracer (HDAC8) was “specific BRET signals” and the BRET with tracer (HDAC1) was “specific BRET signals”. The BRET with tracer (HDAC3) was “specific BRET signals”, the BRET with tracer (HDAC2) was “specific BRET signals” and the BRET with tracer (HDAC6) was “specific BRET”. The BRET with tracer (Class IIa HDACs) was “do not generate significant BRET”, the “EC50 value for binding within living cells” value (NanoLuc-HDAC6 [8]) was “left-shifted EC50 value” and the “specific BRET signal” value (NanoLuc-HDAC6 [8]) was “superior, specific BRET signal”.

Reference: patent US10024862B2, “Recognition of cellular target binding by a bioactive agent using intracellular bioluminescence resonance energy transfer” (Promega Corporation, priority 2012, dated 2018)
